pEC50, pIC50: −log10 of the molar value.
Columns and labels:
H929 cells = test: Cell viability assay in H929 cells (Cell TiterGlo); format: cell-based; conditions: Homo sapiens, NCI-H929, 24 hours at 37° C.
Experimental: Cell viability assays were performed using A431 or H929 cells. A431 cells were seeded in 96-well plates at 10,000 cells/well, and after overnight incubation, treated with compounds at 2-times the final concentration to result in a dose response of 3-fold dilutions from 10 μM to 0.0005 μM (50 μL/well, 0.1% final DMSO concentration). H929 cells were seeded in 96-well plates at 10,000 cells/well and treated immediately with compounds as described above. After 24 hours at 37° C., cell viability was measured using Cell TiterGlo reagent (Promega) with a luminescence reader. Alternately, cell viability assays were performed in 384-well format. A431 cells were seeded in 384-well plates at 2500 cells/well and, after overnight incubation, treated with compounds in a dose response of 3-fold dilutions from 10 μM to 0.0005 μM (25 nL/well, 0.1% final DMSO concentration). For the H929 viability assay, 25 nL/well of the compounds was dispensed into 384-well plates in a dose response as described above and cells were immediately seeded in 384-well plates at 2500 cells/well. After 24 hours at 37° C., cell viability was measured using Cell TiterGlo reagent (Promega) with a luminescence reader.

CDK9/Cyclin T1 = biological target: T1, CDK9/Cyclin T1 (Homo sapiens, UniProt P50750); test: CDK9 enzyme protocol (LANCE ULight TR-FRET kinase assay); format: biochemical; conditions: 4 nM CDK9/Cyclin T1, 1000 μM ATP, 100 nM U-light MBP peptide, 30 minutes
T1 construct: purchased Carna Biosciences 04-110
T1 sequence (P50750 whole entry): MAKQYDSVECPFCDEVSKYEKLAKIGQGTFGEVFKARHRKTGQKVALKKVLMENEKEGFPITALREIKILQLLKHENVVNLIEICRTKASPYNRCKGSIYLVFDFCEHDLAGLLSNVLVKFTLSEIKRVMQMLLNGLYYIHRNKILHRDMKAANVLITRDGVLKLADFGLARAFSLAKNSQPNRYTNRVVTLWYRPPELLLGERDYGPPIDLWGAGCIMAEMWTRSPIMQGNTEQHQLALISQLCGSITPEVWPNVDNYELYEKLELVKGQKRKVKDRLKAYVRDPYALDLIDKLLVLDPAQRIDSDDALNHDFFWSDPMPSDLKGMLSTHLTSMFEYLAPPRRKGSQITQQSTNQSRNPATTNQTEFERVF
T1 sequence (O60563 whole entry partner): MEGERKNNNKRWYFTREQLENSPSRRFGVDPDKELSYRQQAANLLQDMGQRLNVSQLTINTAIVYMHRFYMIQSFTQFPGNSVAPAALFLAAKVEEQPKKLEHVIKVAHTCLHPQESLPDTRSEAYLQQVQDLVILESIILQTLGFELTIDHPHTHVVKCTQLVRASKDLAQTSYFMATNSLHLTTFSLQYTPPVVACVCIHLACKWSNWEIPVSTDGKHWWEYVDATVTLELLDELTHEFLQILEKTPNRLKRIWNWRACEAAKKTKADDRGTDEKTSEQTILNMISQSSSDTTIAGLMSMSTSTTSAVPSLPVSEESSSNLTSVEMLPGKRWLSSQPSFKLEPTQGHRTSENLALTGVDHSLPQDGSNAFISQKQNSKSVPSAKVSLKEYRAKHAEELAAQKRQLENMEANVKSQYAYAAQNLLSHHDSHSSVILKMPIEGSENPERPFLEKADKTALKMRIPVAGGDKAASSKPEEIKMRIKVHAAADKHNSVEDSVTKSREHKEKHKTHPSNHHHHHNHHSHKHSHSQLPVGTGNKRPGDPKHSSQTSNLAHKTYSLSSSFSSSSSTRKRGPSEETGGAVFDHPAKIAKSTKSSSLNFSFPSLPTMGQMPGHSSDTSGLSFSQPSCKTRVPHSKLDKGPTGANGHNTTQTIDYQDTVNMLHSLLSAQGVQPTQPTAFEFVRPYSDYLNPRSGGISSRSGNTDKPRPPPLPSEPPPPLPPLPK
Experimental: CDK9 enzyme activities were measured using LANCE ULight TR-FRET kinase assay reagents (PerkinElmer, Waltham, Mass.). Compounds were directly added in 100% DMSO to white low volume assay plates (Perkin Elmer Proxiplate 6008289) using a Labcyte Echo acoustic dispenser. Assay reagents in serine/threonine kinase assay buffer containing 20 mM HEPES, 10 mM MgCl2, 100 mM Na3VO4, and 0.0075% Triton X-100. were added for final reaction mixture concentrations of 1000 μM ATP, 100 nM U-light MBP peptide (Perkin Elmer TRF0109M) and reaction initiated with 4 nM CDK9/Cyclin T1 (Carna Biosciences 04-110). The kinase reaction was carried out for 30 minutes before addition of stopping buffer to a final of 20 mM EDTA and 0.5 nM of LANCE Ultra Europium anti-phospho-MBP antibody (PerkinElmer TRF0201M) in LANCE detection buffer (PerkinElmer CR97-100). The reaction was equilibrated for 1 hour and the signal read in the Perkin Elmer Envision in TR-FRET mode (excitation at 320 nm and emission at 615/665 nm).

Structure (SMILES) | pEC50 (H929 cells) | pIC50 (CDK9/Cyclin T1)
COc1ccc(F)cc1-c1ncnc2[nH]c(C3=CCN(S(=O)(=O)C(F)(F)F)CC3)cc12 [Example 40, 4-(5-fluoro-2-methoxyphenyl)-6-{1-[(trifluoromethyl)sulfonyl]-1,2,3,6-tetrahydropyridin-4-yl}-7H-pyrrolo[2,3-d]pyrimidine] | 6.17 | 6.82
COc1ccc(F)cc1-c1ncnc2[nH]c(C3=CCC(N[C@H](C(=O)O)C4CCCCC4)CC3)cc12 (stereo partly drawn) [Example 77, (2S)-cyclohexyl({4-[4-(5-fluoro-2-methoxyphenyl)-7H-pyrrolo[2,3-d]pyrimidin-6-yl]cyclohex-3-en-1-yl}amino)acetic acid] | 6.22 | 6.54
COc1ccc(F)cc1-c1ncnc2[nH]c(C3=CCN(Cc4ccccc4)CC3)cc12 [Example 21, 6-(1-benzyl-1,2,3,6-tetrahydropyridin-4-yl)-4-(5-fluoro-2-methoxyphenyl)-7H-pyrrolo[2,3-d]pyrimidine] | 6.36 | 7.46
CS(=O)(=O)N1CC=C(c2cc3c(-c4cc(NCc5cccc(C#N)c5)ccc4F)ncnc3[nH]2)CC1 [Example 31, 3-{[(4-fluoro-3-{6-[1-(methylsulfonyl)-1,2,3,6-tetrahydropyridin-4-yl]-7H-pyrrolo[2,3-d]pyrimidin-4-yl}phenyl)amino]methyl}benzonitrile] | 6.80 | 6.96
COc1ccc(F)cc1-c1ncnc2[nH]c(C3=CCN(Cc4ccccn4)CC3)cc12 [Example 26, 4-(5-fluoro-2-methoxyphenyl)-6-[1-(pyridin-2-ylmethyl)-1,2,3,6-tetrahydropyridin-4-yl]-7H-pyrrolo[2,3-d]pyrimidine] | 6.21 | 6.72
CCOc1ccc(F)cc1-c1ncnc2[nH]c(C3=CCN(Cc4ccc(NC(C)=O)cc4)CC3)cc12 [Example 68, N-[4-({4-[4-(2-ethoxy-5-fluorophenyl)-7H-pyrrolo[2,3-d]pyrimidin-6-yl]-3,6-dihydropyridin-1(2H)-yl}methyl)phenyl]acetamide] | 6.38 | 6.70
COc1ccc(F)cc1-c1ncnc2[nH]c(C3=CCN(Cc4cccc(C#N)c4)CC3)cc12 [Example 23, 3-({4-[4-(5-fluoro-2-methoxyphenyl)-7H-pyrrolo[2,3-d]pyrimidin-6-yl]-3,6-dihydropyridin-1(2H)-yl}methyl)benzonitrile] | 6.38 | 6.57
COc1ccc(F)cc1-c1ncnc2[nH]c(C3=CCN(CC4CCNCC4)CC3)cc12 [Example 39, 4-(5-fluoro-2-methoxyphenyl)-6-[1-(piperidin-4-ylmethyl)-1,2,3,6-tetrahydropyridin-4-yl]-7H-pyrrolo[2,3-d]pyrimidine] | 5.32 | 6.68
COc1ccc(F)cc1-c1ncnc2[nH]c(C3=CCN(Cc4cccnc4)CC3)cc12 [Example 34, 4-(5-fluoro-2-methoxyphenyl)-6-[1-(pyridin-3-ylmethyl)-1,2,3,6-tetrahydropyridin-4-yl]-7H-pyrrolo[2,3-d]pyrimidine] | 6.20 | 6.77
COc1ccc(F)cc1-c1ncnc2[nH]c(C3=CCN(Cc4ccc(N)cc4)CC3)cc12 [Example 70, 4-({4-[4-(5-fluoro-2-methoxyphenyl)-7H-pyrrolo[2,3-d]pyrimidin-6-yl]-3,6-dihydropyridin-1(2H)-yl}methyl)aniline] | 6.80 | 7.04
COc1ccc(F)cc1-c1ncnc2[nH]c(C3=CCN(S(=O)(=O)C(C)C)CC3)cc12 [Example 10, 4-(5-fluoro-2-methoxyphenyl)-6-[1-(propan-2-ylsulfonyl)-1,2,3,6-tetrahydropyridin-4-yl]-7H-pyrrolo[2,3-d]pyrimidine] | 6.26 | 6.80
CS(=O)(=O)N1CC=C(c2cc3c(-c4cc(NCc5ccccc5)ccc4F)ncnc3[nH]2)CC1 [Example 29, N-benzyl-4-fluoro-3-{6-[1-(methylsulfonyl)-1,2,3,6-tetrahydropyridin-4-yl]-7H-pyrrolo[2,3-d]pyrimidin-4-yl}aniline] | 6.54 | 6.89
CCOC(=O)NS(=O)(=O)N1CC=C(c2cc3c(-c4cc(F)ccc4OC)ncnc3[nH]2)CC1 [Example 82, ethyl ({4-[4-(5-fluoro-2-methoxyphenyl)-7H-pyrrolo[2,3-d]pyrimidin-6-yl]-3,6-dihydropyridin-1(2H)-yl}sulfonyl)carbamate] | 6.11 | 7.15
COc1ccc(F)cc1-c1ncnc2[nH]c(C3=CCN(CC4CCCO4)CC3)cc12 (centres unmarked) [Example 24, 4-(5-fluoro-2-methoxyphenyl)-6-[1-(tetrahydrofuran-2-ylmethyl)-1,2,3,6-tetrahydropyridin-4-yl]-7H-pyrrolo[2,3-d]pyrimidine] | 6.60 | 7.00
COc1ccc(F)cc1-c1ncnc2[nH]c(C3=CCN(Cc4cc(F)cc(F)c4)CC3)cc12 [Example 36, 6-[1-(3,5-difluorobenzyl)-1,2,3,6-tetrahydropyridin-4-yl]-4-(5-fluoro-2-methoxyphenyl)-7H-pyrrolo[2,3-d]pyrimidine] | 6.00 | 6.77
COc1ccc(F)cc1-c1ncnc2[nH]c(C3=CCC(N[C@@H](CC(C)C)C(=O)O)CC3)cc12 (stereo partly drawn) [Example 85, N-{4-[4-(5-fluoro-2-methoxyphenyl)-7H-pyrrolo[2,3-d]pyrimidin-6-yl]cyclohex-3-en-1-yl}-L-leucine] | 5.77 | 6.77

Next, values leading:

pEC50 (H929 cells) | pIC50 (CDK9/Cyclin T1) | Structure (SMILES)
6.08 | 7.16 | COc1ccc(F)cc1-c1ncnc2[nH]c(C3=CCN(C(=O)C4CC(=O)N4)CC3)cc12 (centres unmarked) [Example 13, 4-({4-[4-(5-fluoro-2-methoxyphenyl)-7H-pyrrolo[2,3-d]pyrimidin-6-yl]-3,6-dihydropyridin-1(2H)-yl}carbonyl)azetidin-2-one]
6.39 | 7.38 | COc1ccc(F)cc1-c1ncnc2[nH]c(C3=CCN(C(C)=O)CC3)cc12 [Example 6, 1-{4-[4-(5-fluoro-2-methoxyphenyl)-7H-pyrrolo[2,3-d]pyrimidin-6-yl]-3,6-dihydropyridin-1(2H)-yl}ethanone]
5.23 | 6.96 | COc1ccc(F)cc1-c1ncnc2[nH]c(C3=CCN(C(=O)[C@H]4CC[C@H](C(=O)O)CC4)CC3)cc12 [Example 74, trans-4-({4-[4-(5-fluoro-2-methoxyphenyl)-7H-pyrrolo[2,3-d]pyrimidin-6-yl]-3,6-dihydropyridin-1(2H)-yl}carbonyl)cyclohexanecarboxylic acid]
6.03 | 7.06 | COc1ccc(F)cc1-c1ncnc2[nH]c(C3=CCN(C(=O)C4CCN4)CC3)cc12 (centres unmarked) [Example 12, azetidin-2-yl{4-[4-(5-fluoro-2-methoxyphenyl)-7H-pyrrolo[2,3-d]pyrimidin-6-yl]-3,6-dihydropyridin-1(2H)-yl}methanone]
5.17 | 6.54 | COc1ccc(F)cc1-c1ncnc2[nH]c(C3=CCC(C(=O)O)CC3)cc12 (centres unmarked) [Example 79, 4-[4-(5-fluoro-2-methoxyphenyl)-7H-pyrrolo[2,3-d]pyrimidin-6-yl]cyclohex-3-ene-1-carboxylic acid]
6.74 | 7.06 | C=CCNC(=O)N1CC=C(c2cc3c(-c4cc(F)ccc4OC)ncnc3[nH]2)CC1 [Example 19, 4-[4-(5-fluoro-2-methoxyphenyl)-7H-pyrrolo[2,3-d]pyrimidin-6-yl]-N-(prop-2-en-1-yl)-3,6-dihydropyridine-1(2H)-carboxamide]
5.96 | 6.82 | CCN1CCC(C(=O)N2CC=C(c3cc4c(-c5cc(F)ccc5OC)ncnc4[nH]3)CC2)C1 (centres unmarked) [Example 16, (1-ethylpyrrolidin-3-yl){4-[4-(5-fluoro-2-methoxyphenyl)-7H-pyrrolo[2,3-d]pyrimidin-6-yl]-3,6-dihydropyridin-1(2H)-yl}methanone]
5.77 | 7.19 | COc1ccc(F)cc1-c1ncnc2[nH]c(C3=CCN(C(=O)C4CCC(=O)NC4)CC3)cc12 (centres unmarked) [Example 14, 5-({4-[4-(5-fluoro-2-methoxyphenyl)-7H-pyrrolo[2,3-d]pyrimidin-6-yl]-3,6-dihydropyridin-1(2H)-yl}carbonyl)piperidin-2-one]
6.82 | 7.15 | COc1ccc(F)cc1-c1ncnc2[nH]c(C3=CCN(C(=O)[C@H]4CC[C@H](C(=O)OC)CC4)CC3)cc12 [Example 73, methyl trans-4-({4-[4-(5-fluoro-2-methoxyphenyl)-7H-pyrrolo[2,3-d]pyrimidin-6-yl]-3,6-dihydropyridin-1(2H)-yl}carbonyl)cyclohexanecarboxylate]
